Data from patent US9675662B2, “Compositions for inhibition of RNA polymerase I and methods of production and use thereof” (The Board of Regents of the University of Oklahoma, priority 2011, dated 2017).
Entries after “also recorded” stand apart in the source; their conditions may differ. Like-named read-outs stand apart in the source and are kept apart here. Where no end group is shown, it is not given here. The star is where a group is joined. Biotin = O=C1N[C@H]2[C@H](CS[C@H]2CCCCC(=O)*)N1

What was measured:
[1] = test system: U937 human lymphoma cells; assay: Growth of U937 cells; type: cell-based
Experimental: FIG. 13 illustrates the effects of TAT-22mer on the growth of U937 cells after 24 hours.
(§1) In these experiments, and in others described below, cell numbers were determined using the […], and the absorbance at 570 nm is presented instead of cell numbers.

[2] = test system: P1798 mouse lymphosarcoma cells; assay: Growth and viability (Trypan blue exclusion) of P1798 lymphosarcoma cells; type: cell-based
Description: FIG. 16 illustrates the effect of TAT-22mer on P1798 mouse lymphosarcoma cells.
FIG. 17 contains micrographs of P1798 mouse lymphosarcoma cells treated with TAT-22mer (“STBY peptide”) at indicated doses. The cells were stained with trypan blue to determine viability.
FIG. 18 illustrates the effects of TAT-22mer (TAT-STBY) and TAT-STBY C-Mu on P1798 mouse lymphosarcoma cells.
FIG. 19 illustrates the effects of TAT-22mer (TAT-STBY) and TAT-STBY C-Mu on the viability of P1798 mouse lymphosarcoma cells. The same cells studied in the experiment presented in FIG. 18, were also stained with Trypan blue to determine viability. The viable cell counts at 10 and 24 hrs of treatment were too low to be considered reliable (*).
FIG. 20 illustrates the effects of TAT-22mer (TAT-STBY) and TAT-STBY C-Mu on the viability of P1798 mouse lymphosarcoma cells as analyzed in FIGS. 18 and 19.
FIG. 21 illustrates the effects of TAT-22mer (TAT-STBY) and TAT-STBY C-Mu on P1798 mouse lymphosarcoma cells. P1798 Cells were treated with TAT-STBY C-Mu for 26 hours and then stained with Trypan blue. […] The treated cells were concentrated 20× for photography.
FIG. 22 illustrates the kinetics of cell death following treatment with C-Mu peptide. […] Cells were harvested by centrifugation every two hours, and the numbers of viable cells were determined using the Trypan blue exclusion assay.
(§2) When the sequence of the 22mer was examined, it was noted that it contains two cysteine residues that might form a disulfide bond and inhibit the activity of the peptide. To examine this question, the experiment previously carried out on the N1S1 cells was repeated using peptide that was dissolved in 0.1 mM […].
In fact, automated cell-cell counting was inaccurate due to the increased amount of dead cells and debris (FIGS. 19-20).

N1S1 rat hepatoma cells = assay: Growth of N1S1 hepatoma cells after peptide transduction; type: cell-based
Experimental: FIG. 14 illustrates the effects of TAT-22mer (labeled “STBY”) on the growth of N1S1 rat hepatoma cells.
FIG. 15 illustrates the effects of TAT-22mer (labeled “STBY”) on the growth of N1S1 rat hepatoma cells (fresh peptide added after 24 hours).
This effect was then tested […], i.e. with immortalized cells in tissue culture. There are several possible ways of introducing the desired peptide into cells. In a first experiment, ten amino acids, YGRKKEEQRR (SEQ ID NO:176), were added to the N-terminus of the 22mer peptide, […] (resulting in a sequence of […] (SEQ ID NO:175)); the ten amino acids were added to assist in transduction of the peptide into the cells. The TAT peptide is an NH2-terminal 11-amino acid protein transduction domain (PTD) from the human immunodeficiency virus (HIV) TAT protein that was first identified in 1988 by Green et al. This peptide and peptides like it are capable of transducing proteins across the cell membrane.
The effects of transducing the 22mer coupled to TAT peptide were then compared to TAT peptide alone. An aggressive chemically-induced hepatoma cell line (N1S1 cells) was used for these experiments.
as §2

WI38 cells = assay: Growth of WI38 cells (MTT assay) and peptide uptake; type: cell-based; settings: 48 hours
Experimental: FIG. 11 illustrates the effects of TAT-22mer on WI38 cells after 48 hours using the MTT assay.
as §1

[3] = test system: rDNA transcription in N1S1 cells; assay: [3H]-uridine incorporation into newly synthesized RNA in transduced N1S1 cells; type: cell-based, rat; settings: 40 μM, eight hours after transduction
Experimental: FIG. 7 illustrates that transduction of the 22mer inhibits rDNA transcription in tissue culture cells. Low density cultures of N1S1 cells were transduced with the TAT-22mer (40 μM). Eight hours after transduction, the cells were incubated with tritiated uridine to label newly synthesized RNA. Total RNA was precipitated with TCA and collected on glass fiber filters, and the radioactivity incorporated was measured by liquid scintillation counting.

NIH 3T3 cells = assay: Growth of NIH 3T3 cells after 48 hours; type: cell-based; settings: three plating densities, 40 and 60 μM
Experimental: FIG. 10 illustrates the effects of a TAT-tagged 22mer (TAT-22mer) composition of the presently disclosed inventive concept(s) on NIH 3T3 cells plated at three different densities after 48 hours.
However, it was possible that the same peptide would inhibit the growth of “normal” cells as well. To examine this possibility, TAT-tagged 22mer was added to the media of NIH 3T3 cells, and growth was measured after 48 hours.
as §1

293T cells = assay: Growth of 293T-based cell lines expressing doxycycline-inducible peptide; settings: peptide expressed in cells grown in doxycycline; versus Ψ peptide
Description: To confirm and extend these studies, cell lines were constructed that were based on 293T cells (Invitrogen, Carlsbad, Calif.), that expressed doxycycline-inducible 22mer or the random peptide (Ψ). […] N.B., there was an inhibition of growth.

[4] = test system: rDNA transcription (RNA polymerase I); assay: Cell-free rDNA transcription reaction (N1S1 nuclear extracts, rat rDNA promoter); type: biochemical; settings: added in excess to transcription reaction
Description: FIG. 6 illustrates squelching by excess Rpa43 or the peptide (22mer) that mediates the interaction between Rpa43 and Rrn3.
To test this model, recombinant Rpa43 was purified and added to cell free transcription reactions to determine if excess Rpa43 could inhibit transcription. The components added to this reaction included nuclear extracts of N1S1 cells (a rat tumor cell line), and recombinant DNA of the rat rDNA promoter and the purified, recombinant Rpa43 or purified synthetic peptides (FIG. 6). […] A similar series of experiments was then undertaken with synthetic peptides. The two peptides were based on the sequence of the region shown to be required for the interaction between Rrn3 and Rpa43 (FIG. 6, Panel B).

A431 cells = assay: Growth of A431 cells plated at low density; type: cell-based; settings: 72 hr
Experimental: FIG. 12 illustrates the effects of TAT-22mer on the growth of A431 cells plated at low density after 72 hr.
as §1

Rrn3 = target: T1, Rrn3 (Homo sapiens, UniProt Q9NYV6); assay: Binding of purified recombinant Rrn3 to streptavidin beads carrying biotinylated 22mer (pull-down, western blot); settings: western blotting for Rrn3 (anti-FLAG)
T1 construct: made in house
Experimental: Immunoaffinity purified Rrn3 was incubated with streptavidin beads that had been preincubated with biotin-tagged 22mer or control extracts. After the beads were washed the proteins bound to the beads were analyzed by SDS-PAFE and western blotting for Rrn3 (anti-FLAG antibody).
In order to address that question, a biotinylated peptide made up of those 22 amino acids (biotin-[…] (SEQ ID NO:1)) was attached to streptavidin beads, and the ability to bind purified, recombinant Rrn3 was determined.

T1 sequence (Q9NYV6 whole entry, species assumed): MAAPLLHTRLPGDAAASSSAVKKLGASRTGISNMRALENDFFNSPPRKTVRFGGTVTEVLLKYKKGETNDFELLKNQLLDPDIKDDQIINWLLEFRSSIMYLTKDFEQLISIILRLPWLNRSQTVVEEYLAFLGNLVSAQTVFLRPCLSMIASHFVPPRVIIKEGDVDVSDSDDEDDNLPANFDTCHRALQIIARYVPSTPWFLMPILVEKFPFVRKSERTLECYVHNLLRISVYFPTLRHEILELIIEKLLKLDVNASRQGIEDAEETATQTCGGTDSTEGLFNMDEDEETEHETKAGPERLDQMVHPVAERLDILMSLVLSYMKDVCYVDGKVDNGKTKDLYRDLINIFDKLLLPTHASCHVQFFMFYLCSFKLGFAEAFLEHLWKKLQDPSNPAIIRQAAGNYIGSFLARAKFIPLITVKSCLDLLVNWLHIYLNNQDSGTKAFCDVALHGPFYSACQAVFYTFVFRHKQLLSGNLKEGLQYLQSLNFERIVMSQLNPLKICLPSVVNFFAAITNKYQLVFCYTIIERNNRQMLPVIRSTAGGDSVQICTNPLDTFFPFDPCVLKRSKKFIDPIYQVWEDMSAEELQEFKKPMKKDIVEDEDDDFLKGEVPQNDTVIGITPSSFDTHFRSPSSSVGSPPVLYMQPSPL

Substance | growth of U937 cells [1] | growth of U937 cells at 80 μM ([1]; 80 μM, 24 hours) | growth of P1798 cells [2] | Trypan blue dye exclusion by P1798 cells ([2]; 40 μM) | response of P1798 cells at 40 micromolar ([2]; 40 micromolar, cells grown in a reducing medium) | number of viable P1798 cells ([2]; photomicrographs, Trypan blue) | N1S1 cell growth / cell division (N1S1 rat hepatoma cells) | N1S1 cell growth / cell division (N1S1 rat hepatoma cells; listed as STBY) | decrease in number of treated N1S1 cells (N1S1 rat hepatoma cells; peptide dissolved in 0.1 mM reducing agent (dithiothreitol), fresh peptide added after 24 hours) [%] | growth of WI38 cells (WI38 cells) | inhibition of rDNA transcription ([3]; inferred from uridine incorporation) [%] | inhibition of [3H]-uridine incorporation ([3]; low density N1S1 cultures) [%] | growth of 3T3 cells (NIH 3T3 cells) | cell growth / rate of cell division (293T cells) | inhibition of cell-free rDNA transcription [4] | appearance of N1S1 cells (N1S1 rat hepatoma cells; 40 μM, after 48 hr) | rate of N1S1 cell accumulation (N1S1 rat hepatoma cells; 20 and 40 μM) | growth of A431 cells (A431 cells) | binding of Rrn3 to bead-bound peptide (Rrn3) | binding of Rrn3 to bead-bound peptide (Rrn3; listed as biotin-tagged 22mer)
YGRKKEEQRRNKVSSSHIGCLVHGCFNASIPK (1st ten amino acids are TAT peptide from HIV; last 22 amino acids are from Homo sapiens) [TAT-22mer, 22mer with ten TAT amino acids added to the N-terminus] | very significant effects on the growth | significant inhibition of cell growth | very significant effects on the growth | did not exclude the dye | significant response | significantly reduced the number of viable cells | cell growth was inhibited | very significant effects on the growth | 90 | minimal effect on cell accumulation | ~100 | 70 |  |  |  |  |  |  |  | 
NKVSSSHIGCLVHGCFNASIPK (listed as Homo sapiens) [22mer, amino acids 137 to 158 of mouse Rpa43] |  |  |  |  |  |  | inhibits cell division; also recorded: significantly inhibited cell growth in a dose-dependent manner |  |  | minimal effect on the growth |  |  | no effects on the growth | inhibits cell growth; also recorded: significant decrease in the rate of cell division | inhibits transcription; also recorded: transcription was inhibited | appeared to be apoptotic | decreased rate of cell accumulation | inhibited the growth |  | 
Biotin-NKVSSSHIGCLVHGCFNASIPK (cysteine pairing not given here) [biotinylated 22mer] |  |  |  |  |  |  |  |  |  |  |  |  |  |  |  |  |  |  | Rrn3 bound to beads | sufficient to mediate interaction between Rpa43 and Rrn3
